Data reported in US10294202B2, “Pyrrolidinones as herbicides” (FMC Corporation, priority 2013, dated 2019).

Assays:
velvetleaf = experiment: Test A pre-/postemergence herbicide test; assay type: in vivo, Abutilon theophrasti; conditions: for Velvetleaf plant response rating: visual rating on 0 to 100 scale (0 no effect, 100 complete control)
In short: (§1)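 Scoring was visual, relative to untreated controls, on a 0–100 scale after about 10 greenhouse days. Preemergence treatment used a directed soil spray over seeded loam/sand; postemergence treatment targeted one- to two-leaf plants of 2–10 cm.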

galium = experiment: Test A postemergence herbicide test; assay type: in vivo, Galium aparine
In short: (§2)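 Young potted plants in a loam–sand mix, one- to two-leaf stage and 2–10 cm tall, receive the test chemical postemergence and stay in a greenhouse for approximately 10 days. Injury is then judged by eye against untreated plants, scored 0 (none) to 100 (complete control).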

kochia = experiment: Test A pre-/postemergence herbicide test; assay type: in vivo, Kochia scoparia
In short: as §1

ragweed = experiment: Test A pre-/postemergence herbicide test; assay type: in vivo, Ambrosia elatior
In short: as §1

ryegrass, Italian = experiment: Test A pre-/postemergence herbicide test; assay type: in vivo, Lolium multiflorum
In short: as §1

blackgrass = experiment: Test A postemergence herbicide test; assay type: in vivo, Alopecurus myosuroides
In short: as §2

[1] = Postemergence, 125 g ai/ha, 0 to 100 scale, 0 no effect, 100 complete control
[2] = Postemergence, 500 g ai/ha, 0 to 100 scale (0 no effect, 100 complete control)
[3] = preemergence, 500 g ai/ha, 0 to 100 scale
[4] = Postemergence, 125 g ai/ha, 0 to 100 scale, 0 is no effect, 100 is complete control
[5] = Preemergence, 125 g ai/ha, 0 to 100 scale where 0 is no effect and 100 is complete control
[6] = preemergence, 500 g ai/ha, 0 to 100 scale, 0 is no effect and 100 is complete control
[7] = 125 g ai/ha, 0 to 100 scale, 0 is no effect, 100 is complete control
[8] = 500 g ai/ha, 0 to 100 scale (0 no effect, 100 complete control)
[9] = Postemergence, 125 g ai/ha, visual rating on 0 to 100 scale (0 no effect, 100 complete control), approx. 10 days
[10] = 125 g ai/ha, visual rating, 0 to 100 scale, 0 no effect, 100 complete control, approximately 10 days, preemergence
[11] = 1000 g ai/ha, 0 to 100 scale (0 no effect, 100 complete control)
[12] = Postemergence, 1000 g ai/ha, 0 to 100 scale (0 no effect, 100 complete control)
[13] = preemergence, 1000 g ai/ha, 0 to 100 scale
[14] = 125 g ai/ha, visual rating on 0 to 100 scale (0 no effect, 100 complete control), approx. 10 days
[15] = Preemergence, 500 g ai/ha, visual rating on 0 to 100 scale (0 no effect, 100 complete control)

SMILES	Plant response rating, Velvetleaf (velvetleaf; [2])	Plant response rating, Galium (galium; [8])	Plant response rating, Kochia (kochia; [2])	Plant response rating, Kochia (kochia; [5])	Plant response rating, Ragweed (ragweed; [9])	Plant response rating, Ragweed (ragweed; [2])	Plant response rating, Ragweed (ragweed; [5])	Plant response rating, Ryegrass, Italian (ryegrass, Italian; [9])	Plant response rating, Ryegrass, Italian (ryegrass, Italian; [2])	Plant response rating, Ryegrass, Italian (ryegrass, Italian; [5])	Plant response rating, Blackgrass (blackgrass; [8])	Plant response rating, Galium (galium; [14])	Plant response rating, Kochia (kochia; [9])	Kochia plant response rating (kochia; [15])	Ryegrass, Italian plant response rating (ryegrass, Italian; [15])	Plant response rating, Blackgrass (blackgrass; [14])	also measured
O=C1NCC(c2ccc(F)c(C(F)(F)F)c2)C1C(=O)Nc1ccccc1F (racemic) [Compound 76]	60																Plant response rating, Velvetleaf (velvetleaf; [1]): 20; Velvetleaf plant response rating (velvetleaf; Preemergence, 125 g ai/ha): 0; Plant response rating, Velvetleaf (velvetleaf; [3]): 0
O=C1NCC(c2ccc(F)c(C(F)(F)F)c2)C1C(=O)Nc1ccccc1C(F)(F)F (racemic) [Compound 78]	60																Plant response rating, Velvetleaf (velvetleaf; [1]): 20; Velvetleaf plant response rating (velvetleaf; Preemergence, 125 g ai/ha): 0; Plant response rating, Velvetleaf (velvetleaf; [3]): 30
O=C1NCC(c2ccc(C(F)(F)F)c(F)c2)C1C(=O)Nc1ccccc1F (racemic) [Compound 246]	0																Plant response rating, Velvetleaf (velvetleaf; [4]): 0; Plant response rating, Velvetleaf (velvetleaf; [5]): 0; Plant response rating, Velvetleaf (velvetleaf; [6]): 0
O=C1NCC(c2ccc(C(F)(F)F)nc2)C1C(=O)Nc1ccccc1F (racemic) [Compound 262]																	Plant response rating, Velvetleaf (velvetleaf; [5]): 0; Plant response rating, Velvetleaf (velvetleaf; [6]): 0
O=C1NCC(c2cc(F)cc(F)c2)C1C(=O)Nc1ccc(F)cc1F (racemic) [Compound 278]		50	0	0	0	0	0	0	0	0	60						Plant response rating, Galium (galium; [7]): 40; Plant response rating, Kochia (kochia; [4]): 0; Plant response rating, Kochia (kochia; [6]): 0; Plant response rating, Ragweed (ragweed; [6]): 0; Plant response rating, Ryegrass, Italian (ryegrass, Italian; [6]): 0; Plant response rating, Blackgrass (blackgrass; [7]): 30
O=C1NCC(c2cc(F)cc(F)c2)C1C(=O)Nc1cccc(F)c1F (racemic) [Compound 279]		50	40	40	0	0	0	0	0	0	70						Plant response rating, Galium (galium; [7]): 40; Plant response rating, Kochia (kochia; [4]): 0; Plant response rating, Kochia (kochia; [6]): 80; Plant response rating, Ragweed (ragweed; [6]): 0; Plant response rating, Ryegrass, Italian (ryegrass, Italian; [6]): 60; Plant response rating, Blackgrass (blackgrass; [7]): 60
O=C1NCC(c2ccc(C(F)(F)F)cc2)C1C(=O)Nc1ccccc1Cl (centres unmarked) [Compound 233]																	Plant response rating, Galium (galium; [7]): 20; Galium plant response rating (0 to 100 scale, 0 is no effect, 100 is complete control) (galium; 500 g ai/ha): 50; Plant response rating, Kochia (kochia; [10]): 50; Plant response rating, Kochia (kochia; [4]): 60; Kochia plant response rating (0 to 100 scale, 0 is no effect, 100 is complete control) (kochia; Postemergence, 500 g ai/ha): 80; Plant response rating, Kochia (kochia; [6]): 80; Plant response rating, Ragweed (ragweed; [10]): 40; Plant response rating, Ragweed (ragweed; [4]): 30; Ragweed plant response rating (0 to 100 scale, 0 is no effect, 100 is complete control) (ragweed; Postemergence, 500 g ai/ha): 50; Plant response rating, Ragweed (ragweed; [6]): 50; Plant response rating, Ryegrass, Italian (ryegrass, Italian; [10]): 30; Plant response rating, Ryegrass, Italian (ryegrass, Italian; [4]): 20; Ryegrass, Italian plant response rating (0 to 100 scale, 0 is no effect, 100 is complete control) (ryegrass, Italian; Postemergence, 500 g ai/ha): 40; Plant response rating, Ryegrass, Italian (ryegrass, Italian; [6]): 60; Plant response rating, Blackgrass (blackgrass; [7]): 60; Blackgrass plant response rating (0 to 100 scale, 0 is no effect, 100 is complete control) (blackgrass; 500 g ai/ha): 60
O=C1NCC(c2cccc(C(F)(F)F)c2)C1C(=O)Nc1cccc(F)c1F (centres unmarked) [Compound 241]	20																Plant response rating, Velvetleaf (velvetleaf; [4]): 0; Plant response rating, Velvetleaf (velvetleaf; [5]): 0; Plant response rating, Velvetleaf (velvetleaf; [6]): 0
O=C(Nc1ccccc1F)C1C(=S)NCC1c1cccc(C(F)(F)F)c1 (centres unmarked) [Compound 274]					0			0									Plant response rating, Galium (galium; [11]): 0; Plant response rating, Kochia (kochia; [12]): 40; Plant response rating, Kochia (kochia; [13]): 40; Plant response rating, Ragweed (ragweed; [12]): 30; Plant response rating, Ragweed (ragweed; [13]): 20; Plant response rating, Ryegrass, Italian (ryegrass, Italian; [12]): 20; Plant response rating, Ryegrass, Italian (ryegrass, Italian; [13]): 40; Plant response rating, Blackgrass (blackgrass; [11]): 50
CN1CC(c2ccc(F)c(F)c2)C(C(=O)Nc2ccccc2F)C1=O (centres unmarked) [Compound 302]		60	60	50	0	0	0	0	60	0	60	60	10	70	60	40	Ragweed plant response rating (ragweed; [15]): 30
CN1CC(c2ccc(C(F)(F)F)cc2)C(C(=O)Nc2ccccc2F)C1=O (centres unmarked) [Compound 304]		60	80		0	20	0	50	50	0	70	20	10	70	0	50	
O=C1NCC(c2cccc(Br)c2)C1C(=O)Nc1ccccc1F (centres unmarked) [Compound 307]		0	0	0	0	0	0	0	0	0	70	0	0	0	0	30	Ragweed plant response rating (ragweed; [15]): 0
O=C1NCC(c2cccc(Br)c2)C1C(=O)Nc1cccc(F)c1F (centres unmarked) [Compound 309]		70	0	0	0	0	0	10	30	0	70	60	0	0	20	60	
